These results are taken from paper PMC10384675, “Novel Thiazolidine-2,4-dione-trimethoxybenzene-thiazole Hybrids as Human Topoisomerases Inhibitors” (Pharmaceuticals, 2023).

A value given as a limit tells only on which side of the number the result lay.

Data set [1] has as its system A2058 melanoma cells. The data set is described as follows: MTT cell viability assay, A2058. The data set is classed as cell-based. The settings on record: Homo sapiens, 72 h. The procedure: (§1) All of the synthesized compounds (7a–f) were studied to test their anticancer activity toward the estrogen receptor-positive (ER+) MCF-7 and the triple-negative MDA-MB-231 breast cancer cells (ER-, PR- and HER-2/Neu not overexpressed) and A2058 melanoma cells. Cells were incubated for 72 h with different concentrations of the compounds, and then the viability was checked by the MTT assay. […] Moreover, we checked the cytotoxicity of all of the synthesized compounds against the human MCF-10A non-malignant breast epithelial cells and mouse BALB/3T3 embryonic fibroblasts, in order to evaluate their selectivity on cancer cells.
(§2) The used cell lines (breast cancer cell lines MCF-7 and MDA-MB-231, melanoma cell line A2058 and human mammary epithelial cell line MCF-10A) were obtained from American Type Culture Collection (ATCC, Manassas, VA, USA) and cultured as already reported. The mouse BALB/3T3 embryonic fibroblasts were also purchased from American Type Culture Collection (ATCC, Manassas, VA, USA) and cultured in DMEM high glucose supplemented with 10% bovine calf serum (BCS) and 100 U mL^−1 penicillin/streptomycin.
(§3) MTT assay (Sigma Aldrich (St. Louis, MO, USA)) was performed for evaluating the in vitro anticancer activities of the compounds, as previously indicated. Different concentrations (0.1, 1, 10, 25, 50, and 100 μM) of the compounds were employed, with a 72 h endpoint. IC50 values were obtained from the percent (%) of control using GraphPad Prism 9 (GraphPad Software, La Jolla, CA, USA).
On the technique in general: Tetrazolium assays rely on reduction of a dye to a coloured formazan, in cell work by metabolically active cells.

The subject of data set [2] is human MCF-10A non-malignant breast epithelial cells. Nature of the data set: MTT cytotoxicity assay, MCF-10A. The data set is classed as cell-based. The settings on record: 72 h, normal cells. The procedure: as §1, §2, §3
Data set [3] has as its system mouse BALB/3T3 embryonic fibroblasts. The data set is described as follows: MTT cytotoxicity assay, BALB/3T3. The settings on record: 72 h, normal cells. The data set is classed as cell-based. How it is done:
as §1, §2, §3

The test system of data set [4] is MCF-7 breast cancer cells. Nature of the data set: MTT cell viability assay, MCF-7. The class given is cell-based, human. The settings on record: Homo sapiens, MCF7; MTT, 72 h. The procedure:
as §1, §2, §3

The subject of data set [5] is MDA-MB-231 breast cancer cells. Nature of the data set: MTT cell viability assay, MDA-MB-231. The data set is classed as cell-based. The conditions noted are these: Homo sapiens, 72 h. How it is done: as §1, §2, §3
In data set [6] the target is T1, hTopo II (Homo sapiens, UniProt P11388).
T1 construct: purchased TopoGEN, Port Orange, FL
Nature of the data set: hTopo II decatenation assay. The settings on record: for hTopo II activity inhibition (in words): kDNA. The class given is biochemical. More on the design: key to Topoisomerase Inhibition hTopo II: (+) inhibition; (−) no inhibition; (+/−) partial inhibition. How it is done:
The linear kDNA (Figure 4a,b, lanes A), decatenated kDNA (Figure 4a,b, lanes B) and the catenated circles of kDNA (Figure 4a,b, lanes C) were used as markers. A parallel experiment was performed using ellipticine as reference molecule.
(§4) hTopo I relaxation assays were performed by incubating the substrate (supercoiled pHOT1) with the recombinant hTopo I (TopoGEN, Port Orange, FL, USA) and compounds, as indicated in the supplier protocol (TopoGEN, Port Orange, FL, USA), with some revisions. hTopo II decatenation assays were conducted by incubating the kinetoplast DNA substrate (kDNA) with the hTopo II (TopoGEN, Port Orange, FL) and studied compounds, as indicated in the supplier procedures (TopoGEN, Port Orange, FL, USA), with some changes as in [80].
Figure 4 hTopo II decatenation assay. […] The same experiment was performed using ellipticine (c). Lane 1, decatenated kDNA marker; lane 2, linear kDNA marker; lane 3, CTRL (DMSO), lanes 4–5, ellipticine 10 and 50 µM, respectively.

Data set [7] addresses T2, hTopo I (Homo sapiens, UniProt P11387).
T2 construct: purchased TopoGEN, Port Orange, FL, USA
T2 sequence (P11387 1-765): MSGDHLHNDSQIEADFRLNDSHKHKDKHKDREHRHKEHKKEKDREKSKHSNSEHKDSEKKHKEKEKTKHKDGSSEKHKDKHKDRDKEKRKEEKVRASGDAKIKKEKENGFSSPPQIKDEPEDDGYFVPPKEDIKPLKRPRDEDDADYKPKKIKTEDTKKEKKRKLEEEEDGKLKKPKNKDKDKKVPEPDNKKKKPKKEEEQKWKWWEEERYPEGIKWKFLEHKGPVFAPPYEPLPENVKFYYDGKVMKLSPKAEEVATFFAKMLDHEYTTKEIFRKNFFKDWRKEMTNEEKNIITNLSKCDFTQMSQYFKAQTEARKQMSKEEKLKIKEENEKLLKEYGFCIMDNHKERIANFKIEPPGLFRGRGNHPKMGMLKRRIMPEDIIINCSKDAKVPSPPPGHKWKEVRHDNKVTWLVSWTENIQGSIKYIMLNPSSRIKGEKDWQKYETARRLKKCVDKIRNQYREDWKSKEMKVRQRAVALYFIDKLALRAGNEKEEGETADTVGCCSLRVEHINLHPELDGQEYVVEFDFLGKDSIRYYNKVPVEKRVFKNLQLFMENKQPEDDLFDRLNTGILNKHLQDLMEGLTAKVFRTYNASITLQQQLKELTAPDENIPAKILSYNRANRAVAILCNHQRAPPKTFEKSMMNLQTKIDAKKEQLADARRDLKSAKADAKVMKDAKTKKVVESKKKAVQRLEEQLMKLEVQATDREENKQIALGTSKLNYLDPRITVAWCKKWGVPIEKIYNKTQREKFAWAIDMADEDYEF
The data set is described as follows: hTopo I relaxation assay. The data set is classed as biochemical. More on the design: key to Topoisomerase Inhibition hTopo I: (+) inhibition; (−) no inhibition; (+/−) partial inhibition. The settings on record: for hTopo I activity inhibition (in words): supercoiled pHOT1.
Text: Thiazoles and their derivatives are extensively recognized as chemical nuclei of great interest for producing molecules with multiple biological properties. In particular, several compounds bearing these heterocycles were studied for their capability to interfere with DNA topoisomerases (Topos), ubiquitous enzymes essential in several key cellular processes. In recent years, these enzymes have become popular targets in cancer therapy; indeed, the topoisomerase inhibitors can induce damage to genome integrity. Consequently, the inhibition of topoisomerases leads to cell death by apoptosis and, thus, is fatal. Thus, we carried out two specific tests in vitro for both of the Topos, namely the hTopo I relaxation and the hTopo II decatenation assays. For the hTopo I relaxation assay, we exposed the enzyme to the most interesting compounds, 7b–7e, at the final concentration of 10 µM for 1 h at 37 °C, using as substrate the supercoiled pHOT1 (see Section 4 Materials and Methods for more details). […] Contrarily, in the CTRL lane, where the hTopo I was exposed to only vehicle (DMSO), several bands due to pHOT1 DNA cleavage were present (Figure 3, lane C). […] In Figure 3, panel B, the hTopo I inhibition results using ellipticine, as reference molecule are shown. […] An electrophoretic mobility shift of the pHOT1 DNA was also noticeable, due to the intercalating properties of ellipticine.
as §4
Figure 3 hTopo I relaxation assay. Plasmid pHOT1, used as substrate, was incubated with hTopo I with or without the studied compounds 7b–7e (10 µM concentration), panel (A), and with or without ellipticine (10 and 50 µM concentration), panel (B). Lane A, relaxed DNA marker; lane B, pHOT1 supercoiled DNA, lane C, CTRL (DMSO), lane D–G, compounds 7b–7e 10 µM, respectively. Lane 1, pHOT1 supercoiled DNA; lane 2, CTRL (DMSO), lanes 3–4, ellipticine 10 and 50 µM, respectively.

T1 sequence (P11388 whole entry): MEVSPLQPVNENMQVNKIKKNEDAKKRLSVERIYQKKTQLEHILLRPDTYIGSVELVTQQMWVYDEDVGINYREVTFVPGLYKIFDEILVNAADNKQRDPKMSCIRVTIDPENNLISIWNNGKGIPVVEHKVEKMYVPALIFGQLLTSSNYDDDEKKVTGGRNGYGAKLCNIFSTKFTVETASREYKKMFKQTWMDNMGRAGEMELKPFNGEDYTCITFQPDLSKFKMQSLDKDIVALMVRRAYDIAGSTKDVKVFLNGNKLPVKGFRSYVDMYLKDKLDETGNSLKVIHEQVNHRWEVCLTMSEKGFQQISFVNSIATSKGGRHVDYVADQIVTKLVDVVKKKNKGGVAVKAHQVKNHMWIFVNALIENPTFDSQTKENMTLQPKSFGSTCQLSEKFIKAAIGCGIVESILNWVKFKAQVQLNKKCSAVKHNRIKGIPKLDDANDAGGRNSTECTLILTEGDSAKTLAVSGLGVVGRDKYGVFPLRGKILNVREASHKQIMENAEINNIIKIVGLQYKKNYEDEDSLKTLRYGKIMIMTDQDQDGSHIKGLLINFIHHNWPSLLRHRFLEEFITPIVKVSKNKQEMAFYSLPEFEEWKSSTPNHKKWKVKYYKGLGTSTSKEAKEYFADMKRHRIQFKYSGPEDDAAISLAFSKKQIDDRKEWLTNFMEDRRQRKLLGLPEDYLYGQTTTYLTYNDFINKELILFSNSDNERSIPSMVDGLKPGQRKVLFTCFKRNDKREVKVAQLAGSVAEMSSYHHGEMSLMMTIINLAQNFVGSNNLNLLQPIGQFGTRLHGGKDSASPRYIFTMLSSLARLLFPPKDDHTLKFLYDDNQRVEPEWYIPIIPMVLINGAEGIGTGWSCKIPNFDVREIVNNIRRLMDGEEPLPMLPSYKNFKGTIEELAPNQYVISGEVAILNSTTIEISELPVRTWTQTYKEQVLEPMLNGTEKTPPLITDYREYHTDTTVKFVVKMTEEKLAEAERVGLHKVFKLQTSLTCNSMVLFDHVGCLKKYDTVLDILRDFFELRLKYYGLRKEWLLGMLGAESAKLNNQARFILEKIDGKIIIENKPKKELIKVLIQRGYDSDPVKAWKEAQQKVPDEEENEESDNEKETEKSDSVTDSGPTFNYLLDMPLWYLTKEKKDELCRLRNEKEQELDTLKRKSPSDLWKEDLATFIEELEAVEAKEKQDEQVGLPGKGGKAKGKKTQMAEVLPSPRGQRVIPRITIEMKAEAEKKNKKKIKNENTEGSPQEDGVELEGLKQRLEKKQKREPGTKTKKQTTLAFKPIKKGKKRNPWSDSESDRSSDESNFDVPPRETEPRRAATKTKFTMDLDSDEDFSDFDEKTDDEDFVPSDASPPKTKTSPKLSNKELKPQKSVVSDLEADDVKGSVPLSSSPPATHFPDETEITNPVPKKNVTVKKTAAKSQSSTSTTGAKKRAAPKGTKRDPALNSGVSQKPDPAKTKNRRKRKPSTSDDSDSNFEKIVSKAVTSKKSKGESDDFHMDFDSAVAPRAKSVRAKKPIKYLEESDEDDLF

One may read the IC50 as the concentration that gives 50% inhibition. For orientation: melting point means the temperature, or range, at which the solid turns liquid. The compound `COc1cc(/C=C2\SC(=O)N(CC(=O)Nc3nccs3)C2=O)cc(OC)c1OC` [compound 7a, (Z)-2-(5-(3,4,5-Trimethoxybenzylidene)thiazolidin-2,4-dion-3-yl)-N-(thiazol-2-yl)acetamide] registered a melting point of 245 to 247 °C. In data set [1], this compound showed an IC50 of more than 100 µM. Further, the half-maximal inhibitory concentration (IC50) in data set [2] is more than 100 µM. Also, half-maximal inhibition in data set [3] (IC50) was put at 89.2 ± 1.1 µM. In data set [4], this compound gave an IC50 of more than 100 µM. The IC50 in data set [5] was 27.5 ± 0.9 µM.
`COc1cc(/C=C2\SC(=O)N(CC(=O)Nc3nc(-c4ccccc4)cs3)C2=O)cc(OC)c1OC` [compound 7b, (Z)-2-(5-(3,4,5-Trimethoxybenzylidene)thiazolidin-2,4-dion-3-yl)-N-(4-phenylthiazol-2-yl)acetamide]: the IC50 in data set [1] was 3.5 ± 1.1 µM; in data set [2] it was more than 100 µM; in data set [3] it was more than 100 µM; in data set [4], 8.5 ± 1.2 µM; in data set [5], 17.9 ± 1.1 µM. Also, the “Topoisomerase Inhibition hTopo II” value in data set [6] (10 µM) and in data set [6] (50 µM) was “−” each time. Moreover, in data set [6] (50 µM), the “hTopo II activity inhibition (in words)” value was “unable to inhibit the hTopo II activity”. Moreover, the “Topoisomerase Inhibition hTopo I” value in data set [7] (10 µM) is listed as “−”. Also, the “hTopo I activity inhibition (in words)” value in data set [7] (10 µM, 1 h, 37 °C) is “not able to inhibit the relaxation activity”.
`COc1cc(/C=C2\SC(=O)N(CC(=O)Nc3nc(-c4ccc(C)cc4)cs3)C2=O)cc(OC)c1OC` [compound 7c, (Z)-2-(5-(3,4,5-Trimethoxybenzylidene)thiazolidin-2,4-dion-3-yl)-N-(4-(4-methylphenyl)thiazol-2-yl)acetamide]: the IC50 in data set [1] is 4.8 ± 1 µM; in data set [2], 46.4 ± 1.1 µM; in data set [3], more than 100 µM; in data set [4] it was 19.5 ± 0.6 µM; in data set [5] it was 32.8 ± 0.6 µM. In addition, the “Topoisomerase Inhibition hTopo II” value in data set [6] (10 µM) is given as “−”; in data set [6] (50 µM), “+”. For the same compound, in data set [7] (10 µM), the “Topoisomerase Inhibition hTopo I” value is listed as “−”. Moreover, the “hTopo I activity inhibition (in words)” value in data set [7] (10 µM, 1 h, 37 °C) is reported as “not able to inhibit the relaxation activity”.
Take `COc1cc(/C=C2\SC(=O)N(CC(=O)Nc3nc(-c4ccc(Cl)cc4)cs3)C2=O)cc(OC)c1OC` [compound 7d, (Z)-2-(5-(3,4,5-Trimethoxybenzylidene)thiazolidin-2,4-dion-3-yl)-N-(4-(4-chlorophenyl)thiazol-2-yl)acetamide]: the IC50 is 6.4 ± 0.9 µM in data set [1]; more than 100 µM in data set [2]; 36.1 ± 1 µM in data set [3]; 34.1 ± 0.7 µM in data set [4]; 33.4 ± 1 µM in data set [5]. Moreover, the “Topoisomerase Inhibition hTopo II” value in data set [6] (10 µM) was “−”; in data set [6] (50 µM), “+”. Also, the “Topoisomerase Inhibition hTopo I” value in data set [7] (10 µM) is “−”. In addition, the “hTopo I activity inhibition (in words)” value in data set [7] (10 µM, 1 h, 37 °C) is “not able to inhibit the relaxation activity”.
For the compound `COc1cc(/C=C2\SC(=O)N(CC(=O)Nc3nc4ccccc4s3)C2=O)cc(OC)c1OC` [compound 7f, (Z)-2-(5-(3,4,5-Trimethoxybenzylidene)thiazolidin-2,4-dion-3-yl)-N-(benzo[d]thiazol-2-yl)acetamide], the IC50 in data set [1] is 24.6 ± 1.1 µM; in data set [2], more than 100 µM; in data set [3] it was more than 100 µM; in data set [4], 17.4 ± 1.1 µM; in data set [5], 50.5 ± 0.8 µM. The entries for the “Topoisomerase Inhibition hTopo II” value in data set [6] (10 µM) and in data set [6] (50 µM) were “−” and “+”, respectively. Moreover, the “Topoisomerase Inhibition hTopo I” value in data set [7] (10 µM) is reported as “+”.
In the case of `Cc1c2ccncc2c(C)c2c1[nH]c1ccccc12` [ellipticine, reference compound], the half-inhibitory concentration (IC50) in data set [1] was 1.33 ± 0.9 µM; in data set [2], 1.09 ± 0.1 µM; in data set [3], 0.97 ± 0.1 µM; in data set [4] it was 1.15 ± 0.5 µM; in data set [5] it was 1.73 ± 0.4 µM. Besides, the “Topoisomerase Inhibition hTopo II” value in data set [6] (10 µM) is recorded as “+/−”; in data set [6] (50 µM), “+”. Moreover, the “hTopo II activity inhibition (in words)” value in data set [6] (50 µM) is “totally block”. The “Topoisomerase Inhibition hTopo I” value in data set [7] (10 µM) and in data set [7] (50 µM) was “+” in each case. Moreover, the “hTopo I activity inhibition (in words)” value in data set [7] (10 µM, 1 h, 37 °C) is recorded as “able to block the hTopo I activity”; in data set [7] (50 µM) it was “able to block the hTopo I activity”.
